# From article PMC10386886, “First-in-class multifunctional TYMS nonclassical antifolate inhibitor with potent in vivo activity that prolongs survival” (JCI Insight, 2023)
# Assays:
# TYMS [1] = test: TYMS levels in Luc-PANC-1 xenograft tumors (immunoblot); type: in vivo, mouse; details: 25 mg/kg daily IP, 5 consecutive days
# Source text: (§1) In the subcutaneous tumor model, the resulting Luc-PANC-1 xenograft tumors were monitored by direct tumor measurements and bioluminescence photon flux that is proportional to tumor size. […] Treatment was initiated 30 days after Luc-PANC-1 cell line subcutaneous injections (5 × 10^6 cells), when tumors reached 100 mm^3 in volume, generating a bioluminescence photon flux of 3 × 10^9 to 4 × 10^9 photons/s. […] Tumors from both treatment groups were excised, and the tumor mass was weighed (Figure 2E).
# A small piece of frozen tumor (stored at -80 °C) in RIPA buffer with phosphatase and proteinase inhibitors (Santa Cruz, sc-24948) was homogenized using Omni general laboratory homogenizer (GLH). Tumor was then centrifuged for 20 min at 12000 rpm and 4 °C to obtain whole -cell lysates that was transferred to a new tube. Protein concentration was measured using Bradford Assay and 20 µg of total protein lysate was loaded as described in Methods.
# Tritium based TYMS catalytic activity assay
# The catalytic activity of TYMS was determined by measuring the release of [3H] from [5-3H]dUMP (ViTrax, Cat # VT122) resulting from the conversion of dUMP to dTMP as previously described (2, 3).
# The reaction conditions were optimized to determine the amount of TYMS protein needed to establish […]
# MIA PaCa-2 cells = test: MTS viability assay, MIA PaCa-2; type: cell-based; details: Homo sapiens, 72-hour drug incubation, Figure 1C
# Experimental: (§2) Cells were harvested after 72 hours, and cell pellets were stored at –80°C. […] After 72 hours, cell viability was assessed by reduction of MTS using Cell Titer 96 R Aqueous One Solution Cell Proliferation Assay Kit (Promega, catalog G8081), following manufacturer’s recommendations. […] was measured on a SpectraMax M3 (Molecular Devices). Data were plotted in GraphPad Prism 9 to determine GI50 concentration. Chemical synthesis details, including characterization of each compound, can be found in the Supplemental section associated with this publication.
# in vivo [2] = details: NSG, mouse, ip
# Experimental: Maximum tolerated dose (MTD)
# (§3) experiment) or 5, 10, 25 or 50 mg/kg of 5-FU daily during 5 consecutive days. After 3 treatment cycles,
# (§4) animals rested (no treatment) for one more week before euthanasia. Body weight and physical status
# (§5) of all mice were closely monitored. Tissues were collected and fixed in alcoholic formalin to test for
# (§6) daily during 5 consecutive days for 3 weeks. After 3 treatment cycles, animals rested (no treatment) for
# (§7) one more week before euthanasia. Body weight and physical status of all mice were closely monitored.
# (§8) Tissues were collected and fixed in alcoholic formalin to test for toxicity.
# (§9) Specimens were fixed in alcoholic formalin for 48h and then transferred to 70% ethanol, processed and
# (§10) embedded in paraffin. Tissues were serially sectioned and stained by conventional H&E. Slides were
# in vivo [3] = details: FVB/129/Sv, mouse, ip
# Experimental: Animals received 4 treatment cycles and were then monitored once off treatment until survival endpoint.
# Maximum tolerated dose (MTD)
# as §3, §4, §5, §6, §7, §8, §9, §10
# [4] = tested on: 5-FU-resistant PANC-1 cells; test: Clonability assay in 5-FU-resistant PANC-1 cells; type: cell-based; details: 8.35 μM 19-S or 6.5 μM 5-FU, 21 days
# Experimental: 500 PANC- 1 cells resistant to 6.5 µM 5-FU cells were seeded in 6 well plates by triplicate in media
# After 21 days, cells were washed with PBS, fixed with Methanol for 20 minutes and stained with
# 1% Crystal violet (in PBS) for 20 minutes. After extensive washing, plates were let dry and colonies
# were counted and plotted in GraphPad Prism 9. Images were taken using scanner Epson Perfection
# CM cells = test: MTS viability assay, CM; type: cell-based; details: 72-hour drug incubation, Figure 1C
# [5] = tested on: Luc-PANC-1 xenograft tumors; test: Luc-PANC-1 subcutaneous xenograft tumor model; type: in vivo; details: 19-S vs 5-FU comparison, Supplemental Figure 6
# Source text: as §1
# Luc-PANC-1 (5 × 10^6) and Luc-CM (0.5 × 10^6) cells were resuspended in 200 μL of PBS and injected subcutaneously or IP, respectively, into 6- to 8-week-old NSG mice. Tumor-bearing mice were imaged using Xenogen IVIS Lumina Bioluminescence Imaging System (PerkinElmer) every week after cell injection. […] For all animals, body weight was recorded weekly, and Luc-PANC-1 tumor volume was measured weekly with a caliper. For scheduled sacrifice experiments, animals were euthanized after 4 weeks of treatment. […] Tumor volume was calculated as volume = 0.52(length × width^2).
# Prior to bioluminescence imaging the region where tumors were located was shaved. […] Following the injection of the D-luciferin substrate mice, were imaged using the Xenogen IVIS Lumina Bioluminescence Imaging System (PerkinElmer). The peak of luciferase photon flux was recorded 6 minutes after injection of the D-luciferin substrate. The total photon flux was analyzed and restricted to tumor region of interest using Living Image v2.60.1 software (Imaging Systems).
# PANC-1 cells = test: MTS viability assay, PANC-1; type: cell-based; details: Homo sapiens, 72-hour drug incubation, Figure 1C
# TYMS [6] = test: Immunoblot of TYMS levels in treated PANC-1 cells; type: cell-based; details: PANC-1, 72 hours, Figure 1D
# Experimental: as §2
# A total of 20 μg of total protein lysate was loaded per lane of 10% Tris Glycine Gel (Invitrogen, catalog EC6076). SDS-PAGE was run at 150 V for 1.5 to 2 hours. Proteins were transferred to nitrocellulose membranes using iBlot (Invitrogen, catalog IB3011002). Membranes were blocked with 5% nonfat dry milk (Lab Scientific, catalog M0841) in Tris-buffered saline supplemented with Tween 20 (0.1%) (TBS-T) for 45–60 minutes at room temperature (RT). […] Signal was detected using West Pico Plus chemiluminescence substrate (Thermo Fisher Scientific, catalog 34580) following manufacturer’s recommendations. […] For protein-level quantification relative to loading control, densitometric analysis was performed by ImageJ software (NIH).
# [7] = tested on: H1048 small cell lung cancer cell line; test: Viability assay, H1048; type: cell-based; details: Homo sapiens, NCI-H1048; Supplemental Figure 1B
# Experimental: H1048, Colo320, H630 and CCD18Co cells were purchased from ATCC. Cells were grown in RPMI
# 1640 supplemented with 5 U/ml Penicillin/Streptomycin and 10% fetal bovine serum at a constant
# temperature of 37 °C in a humidified atmosphere of 5% carbon dioxide and were routinely tested for
# mycoplasma contamination.
# For GI50 determination, 3000 Colo320, H630 and CCD18Co cells per well were plated in 96 well plates
# hours, cell viability was assessed by reduction of MTT (3-(4,5- dimethylthiazol-2-yl)-2,5-diphenyltetrazolium bromide) using MTT Reagent (Invitrogen, Cat # M6494), following manufacturer’s
# recommendations. Chemiluminescent output (integration time 1000 ms) was measured on a
# SpectraMax M3 (Molecular Devices). Data was plotted in GraphPad Prism 9 to determine GI50
# [8] = tested on: PANC-1 and MIA PaCa-2 cells; test: Cell count assay for acquired resistance; type: cell-based; details: constant 10 μM
# Experimental: 500000 PANC-1 and MiaPaCa- 2 cells were plated in 75 cm2 flasks in DMEM high glucose
# supplemented with 5 U/ml Penicillin/Streptomycin and 10% fetal bovine serum. Cells were treated with
# Once a week for 7 weeks, cells were trypsinized with Trypsin-
# EDTA 0.05% (Gibco) and counted using Cellometer Auto T4 (Nexcelom Bioscience). 500000 cells were
# re-seeded in a new 75 cm2 flask in the appropriate treatment. Data was plotted in GraphPad Prism 9.
# BON cells = test: MTS viability assay, BON; type: cell-based; details: 72-hour drug incubation, Figure 1C
structure (smiles),measurement,setting,value
"O=c1[nH]cc(F)c(=O)[nH]1 [Compound 5-FU, 5-fluorouracil]",TYMS protein level in tumors,TYMS [1],higher than TYMS protein level in vehicle-treated controls
same,GI50,MIA PaCa-2 cells,20.4 µM
same,MTD at 3 treatment cycles (5 consecutive days of daily dosing each),in vivo [2],25 mg/kg
same,MTD at 3 treatment cycles (5 consecutive days of daily dosing each),in vivo [3],25 mg/kg
same,Colony formation,[4],colonies were observed
same,GI50,CM cells,14.8 µM
same,Tumor volume compared with control mice,[5],significant reduction in tumor volume
same,GI50,PANC-1 cells,15.7 µM
same,TYMS protein expression after treatment,TYMS [6],3 fold
same,GI50,[7],3.63 µM
same,Effect on cell counts after 1 week,[8],potent cytotoxic effect
same,Viable cells after 4 weeks of treatment,[8],remained detectible
same,GI50,BON cells,7.47 µM
same,IC50,BON cells,7.1 µM
